# Assays:
# [1] = system: Leishmania (isolate L.C.L.) promastigotes; experiment: Promastigote viability by MTT, L.C.L. isolate, Warren medium; type: cell-based; conditions: for O.D. (optical density at 595/690 nm, average of duplicates): Warren medium
# Experimental: (§1) Viability and/or cellular proliferative assays of promastigote and amastigote forms are also performed by the MTT (diphenyl tetrazolium 3-[4,5-dimethylthiazol-2il]2,5-bromide) method as described by Moreira, et al. (Moreira, M. E. C., Del Portillo, H. A., Milder, R. V., Balanco, J. M. F. and Barcinski, M. A. Heat shock induction of apoptosis in promastigotes of the unicellular organism Leishmania (Leishmania) amazonensis, J. Cell Physiol 167, 305-313, 1996), modified.
# (§2) After incubation of parasitic forms with the compounds, as described above, for predetermined periods of time for each experiment (24, 48, 72 hours, etc.), an 1.0 mL aliquot of cellular suspension is collected from each culture tube or vial and transferred to microcentrifuge tubes, where they are centrifuged at 14.000 rpm for 3 minutes, the culture medium is aspirated and discharged. To the sedimented cells are add 200 μL of PBS. After that, the volume in PBS of the cellular suspensions is splitted into two wells (duplicates of 100 μL each) of a 96 well culture plate. To each duplicate, […] of MTT (5 mg/mL stock solution, […]) are added. After 1 h or 1 h 30 min, at a temperature of 22° C. (promastigotes) or 34° C. (amastigotes), 100 μL of 10% SDS are added to each well to interrupt the reaction, to lyse the cells and to dissolve the formazan crystals, resulting in an homogeneous blue solution appropriate to the absorbance measure by a spectrophotometer for culture microplates (3550 BIORAD model, Richmond, Calif.), at 595 nm as test wavelength and 690 nm as the reference wavelength.
# (§3) The optical density (O.D.) values correspond to MTT enzymatic reduction by the metabolic active cells. Consequently, the O.D. is directly proportional to the number of viable cells of the cellular suspension. The progressive increase of O.D. indicates cellular proliferation. Results are expressed as arithmetic average of the optical density duplicates.
# (§4) This experiment is developed in the Warren medium using an initial inoculum of 2.0×10^6/mL of the medium for the isolates. Cultures were at the day 7^h of passage and at the final exponential phase growth (day 6 of incubation). The results of viability determination for the Leishmania (isolate L.C.L.) promastigotes, incubated in Warren medium and in the presence of HB-1, are shown in the next Table and in FIG. 36. The culture final volume is of 5 mL and the MTT reactions are processed in 1 h and 30 minutes of incubation, beginning with 1.0 mL of culture.
# [2] = system: promastigotes of Leishmania (isolate D.C.L.); experiment: Promastigote viability by MTT, D.C.L. isolate, Warren medium; type: cell-based; conditions: for O.D. (optical density at 595/690 nm wavelength): Warren medium
# Experimental: as §1, §2, §3, §4
# In the next Table and in FIG. 37 are shown the results of viability determination for the promastigotes of Leishmania (isolate D.C.L.) incubated in Warren medium in the presence of HB-1.
# B16F10 melanoma cells = experiment: Cytotoxic and antiproliferative effects by the MTT colorimetric method on B16F10 melanoma cells; type: cell-based, murine; conditions: Mus musculus, B16-F10, 24 h, compound diluted in Miglyol 810; 24 hour; from the linear equation; read-out: IC50
# Excerpt: Analysis of Cytotoxic and Antiproliferative Effects of HB-1 Compound and Miglyol 810® as Control by the MTT Colorimetric Method on B16F10 Melanoma Cells.
# The colorimetric methodology for the respiratory route of mitochondria MTT (3-(4,5-dimethylthiazol-2-yl)2,5-diphenyl tetrazolium bromide) was used, as described by MOSMANN (1983). This method is based on the reduction of MTT to formazan by living cells. After growth and in vitro confluence of normal and tumoral cells, different concentrations of the HB-1 compound diluted in Miglyol 810® and the diluent-control (Miglyol 810®) have been added on the adhering cells, incubated for 24 hour. After the referred period, 10 μl of MTT (5 mg/mL) were added and incubated for 3 hours in stove with 5% CO2 at 37° C. After this period, the content of the culture plates were centrifuged for 2 minutes at 1800 rpm, at 4° C., the supernatant was removed and 100 μL of dimethyl sulfoxide (DMSO) were added to dissolve formazan crystals previously constituted and precipitated. The absorbances were obtained by an ELISA reader at 540 nm (TiterTek Multiskan) wavelength, with the results obtained shown in FIG. 12.
# IC50 Evaluation for B16F10 Melanoma Cells, Obtained from the Linear Equation.
smiles,measurement,setting,value
"COc1cc(C=CC(=O)C=Cc2ccc(O)c(OC)c2)ccc1O [HB-1, 1,5-Bis-(4-hydroxy-3-methoxy-phenyl)-penta-1,4-dien-3-one]",effect in words,[1]; HB-1 5 μg/mL,partial inhibition of proliferation
same,"O.D. (optical density at 595/690 nm, average of duplicates)","[1]; HB-1 5 μg/mL, 24 hours",0.489
same,"O.D. (optical density at 595/690 nm, average of duplicates)","[1]; HB-1 5 μg/mL, 48 hours",0.452
same,"O.D. (optical density at 595/690 nm, average of duplicates)","[1]; HB-1 5 μg/mL, 72 hours",1.346
same,"O.D. (optical density at 595/690 nm, average of duplicates)","[1]; HB-1 5 μg/mL, 96 hours",1.834
same,effect in words,[1]; HB-1 10 μg/mL,leishmaniostatic effect
same,"O.D. (optical density at 595/690 nm, average of duplicates)","[1]; HB-1 10 μg/mL, 24 hours",0.177
same,"O.D. (optical density at 595/690 nm, average of duplicates)","[1]; HB-1 10 μg/mL, 48 hours",0.153
same,"O.D. (optical density at 595/690 nm, average of duplicates)","[1]; HB-1 10 μg/mL, 72 hours",0.176
same,"O.D. (optical density at 595/690 nm, average of duplicates)","[1]; HB-1 10 μg/mL, 96 hours",0.187
same,effect in words,[1]; HB-1 20 μg/mL,leishmanicide
same,"O.D. (optical density at 595/690 nm, average of duplicates)","[1]; HB-1 20 μg/mL, 24 hours",0.056
same,"O.D. (optical density at 595/690 nm, average of duplicates)","[1]; HB-1 20 μg/mL, 48 hours",0.014
same,"O.D. (optical density at 595/690 nm, average of duplicates)","[1]; HB-1 20 μg/mL, 72 hours",0.012
same,"O.D. (optical density at 595/690 nm, average of duplicates)","[1]; HB-1 20 μg/mL, 96 hours",0.012
same,O.D. (optical density at 595/690 nm wavelength),"[2]; HB-1 5 μg/mL, 24 hours",0.299
same,O.D. (optical density at 595/690 nm wavelength),"[2]; HB-1 5 μg/mL, 48 hours",0.682
same,O.D. (optical density at 595/690 nm wavelength),"[2]; HB-1 5 μg/mL, 72 hours",0.785
same,O.D. (optical density at 595/690 nm wavelength),"[2]; HB-1 10 μg/mL, 24 hours",0.083
same,O.D. (optical density at 595/690 nm wavelength),"[2]; HB-1 10 μg/mL, 48 hours",0.059
same,O.D. (optical density at 595/690 nm wavelength),"[2]; HB-1 10 μg/mL, 72 hours",0.017
same,O.D. (optical density at 595/690 nm wavelength),"[2]; HB-1 10 μg/mL, 96 hours",0.016
same,O.D. (optical density at 595/690 nm wavelength),"[2]; HB-1 20 μg/mL, 24 hours",0.025
same,O.D. (optical density at 595/690 nm wavelength),"[2]; HB-1 20 μg/mL, 48 hours",0.012
same,O.D. (optical density at 595/690 nm wavelength),"[2]; HB-1 20 μg/mL, 72 hours",0.016
same,O.D. (optical density at 595/690 nm wavelength),"[2]; HB-1 20 μg/mL, 96 hours",0.013
same,effect in words,[2]; HB-1 from 10 μg/mL,leishmanicide effect
same,IC50,B16F10 melanoma cells,7 µg/mL
